Source: patent US9775844B2, “Heterocyclic compounds and uses thereof” (Infinity Pharmaceuticals, Inc., priority 2014, dated 2017)
Read-outs that look alike come from different tables or passages of the source.

Legend:
P-GP (P-glycoprotein 1) = P-GP (P-glycoprotein 1) (Homo sapiens (Human), UniProt P08183); assay: P-glycoprotein inhibition; assay type: in vitro ADME
From the text: Without being bound by a particular theory, the P-gp inhibitor could help maintin levels of the P-gp substrate in tumors overexpressing the P-gp transporter.

[1] = test system: CXCL12 stimulated pAKT in T cells and monocytes; assay: Ex vivo whole blood CXCL12 stimulation of phospho-AKT, LLC-bearing mice; assay type: in vivo, mouse; settings: 12 days QD PO, 2 h post dose
Description: C57 BL/6 Albino mice were implanted with 1×10^6 cells in a SC injection in the hind flank. The cell implant material was generated from brei that was passaged from mouse to mouse. Treatment started when tumors were between 160-180 mm^3 Mice were dosed for 12 days, QD, PO with vehicle, 15, 7.5 or 3 mg/kg. On day 12 mice were dosed and terminal blood was collected 2 h post dose by cardiac stick collection. Blood was placed in EDTA K2 collection tube and stored at room temp for PD analysis.
Blood from each animal was aliquotted into 2 plates and warmed to 37° C. degrees. PBS was added to one plate as an unstimulated control. Murine CXCL12/SDF-1 was added to the second plate to a final concentration of 800 ng/mL and plate was returned to the 37° C. degree block. After 2 minutes of incubation, blood was lysed and fixed using paraformaldehyde. Samples were washed and frozen until flow cytometric analysis. T cells were gated using an antibody to CD3 and monocytes were gated as LY6G^− LY6C^high. Intracellular pAKT […] was measured and percent positive was used for graphing.

Cyp = Cyp Induction (activity and mRNA); assay type: in vitro ADME
4T1 = 4T1 breast cancer model
4T1 breast cancer = assay: Orthotopic 4T1 breast cancer model; assay type: in vivo; settings: Compound BB and/or PDL-1 inhibition
[2] = test system: monocytic iMCs in CT26 subcutaneous tumors; assay: Flow cytometry of tumor-associated myeloid cells, CT26 subcutaneous tumors; assay type: in vivo, mouse; settings: FIG. 38B
Description: Flow cytometry was performed to obtain a more extensive cellular subset analysis. In particular, the study examined T cell vs. Myeloid cells, Myeloid cell subsets, Regulatory vs. effector T cells, and Tumor markers vs. WBC (e.g., PD-L1 expression on tumor).
Different populations of tumor-associated myeloid cells can be identified by flow cytometry, e.g., monocytic immature myeloid cells (iMC),Granulocytic iMCs/Neutrophils, Tumor Associated Macrophages (TAMs), and Granulocytic MDSCs. The different populations, and panels for detecting MDSCs, are described in Cancer Discovery 2011; 1:54-67. Tumors may vary in their myeloid cell composition.

[3] = Expected oral half-life in humans (from animal data); settings: human, based on rat, dog, monkey data
CT26 colon carcinoma = assay: CT26 allograft model of mouse colon cancer; assay type: in vivo; settings: FIG. 28
Description: CT26 is an N-nitroso-N-methylurethane-(NNMU) induced, undifferentiated colon carcinoma cell line. It was cloned to generate the cell line designated CT26.WT […] number CRL-2638). 5-6 week old female, Balb/c mice (Jackson Labs) were implanted subcutaneously with 5×10^5 CT26 cells in 200 μl PBS. CT26 cells were cultured in DMEM supplemented with 10% FBS.

Lewis Lung Carcinoma = Lewis Lung Carcinoma model; assay type: in vivo, mice
human hepatocytes = assay: Human hep viability; assay type: cell-based; settings: Hepatocyte
[4] = Oral PK in the rat LPS studies (free plasma concentration); assay type: in vivo; settings: plasma, read-out: Free Plasma Conc
Description: This study also includes assessment of the exposure to the compounds in plasma and lung tissues.
Ref C is budesonide p.o. The compound was administered p.o. and about 1 hour later, LPS was administered intra-tracheally and plasma was collected. After about 5 hours, plasma and bronchoalveolar lavage samples were collected.

[5] = Unbound concentrations in tumor and plasma, LLC model, 12 days daily oral administration; assay type: in vivo, mouse; settings: Plasma, 12 days daily oral administration in NMP solution, read-out: Free Conc
From the text: Below is a table of details:

[6] = test system: M1 macrophage differentiation; assay: M1 macrophage differentiation; assay type: cell-based
Description: A similar experiment was performed on M1 differentiation.

TMD8 cell line = assay: Combination isobologram in TMD8 cell line; assay type: cell-based; settings: combination of Compound AA and Compound BB

P-GP (P-glycoprotein 1), sequence (P08183 whole entry, species assumed): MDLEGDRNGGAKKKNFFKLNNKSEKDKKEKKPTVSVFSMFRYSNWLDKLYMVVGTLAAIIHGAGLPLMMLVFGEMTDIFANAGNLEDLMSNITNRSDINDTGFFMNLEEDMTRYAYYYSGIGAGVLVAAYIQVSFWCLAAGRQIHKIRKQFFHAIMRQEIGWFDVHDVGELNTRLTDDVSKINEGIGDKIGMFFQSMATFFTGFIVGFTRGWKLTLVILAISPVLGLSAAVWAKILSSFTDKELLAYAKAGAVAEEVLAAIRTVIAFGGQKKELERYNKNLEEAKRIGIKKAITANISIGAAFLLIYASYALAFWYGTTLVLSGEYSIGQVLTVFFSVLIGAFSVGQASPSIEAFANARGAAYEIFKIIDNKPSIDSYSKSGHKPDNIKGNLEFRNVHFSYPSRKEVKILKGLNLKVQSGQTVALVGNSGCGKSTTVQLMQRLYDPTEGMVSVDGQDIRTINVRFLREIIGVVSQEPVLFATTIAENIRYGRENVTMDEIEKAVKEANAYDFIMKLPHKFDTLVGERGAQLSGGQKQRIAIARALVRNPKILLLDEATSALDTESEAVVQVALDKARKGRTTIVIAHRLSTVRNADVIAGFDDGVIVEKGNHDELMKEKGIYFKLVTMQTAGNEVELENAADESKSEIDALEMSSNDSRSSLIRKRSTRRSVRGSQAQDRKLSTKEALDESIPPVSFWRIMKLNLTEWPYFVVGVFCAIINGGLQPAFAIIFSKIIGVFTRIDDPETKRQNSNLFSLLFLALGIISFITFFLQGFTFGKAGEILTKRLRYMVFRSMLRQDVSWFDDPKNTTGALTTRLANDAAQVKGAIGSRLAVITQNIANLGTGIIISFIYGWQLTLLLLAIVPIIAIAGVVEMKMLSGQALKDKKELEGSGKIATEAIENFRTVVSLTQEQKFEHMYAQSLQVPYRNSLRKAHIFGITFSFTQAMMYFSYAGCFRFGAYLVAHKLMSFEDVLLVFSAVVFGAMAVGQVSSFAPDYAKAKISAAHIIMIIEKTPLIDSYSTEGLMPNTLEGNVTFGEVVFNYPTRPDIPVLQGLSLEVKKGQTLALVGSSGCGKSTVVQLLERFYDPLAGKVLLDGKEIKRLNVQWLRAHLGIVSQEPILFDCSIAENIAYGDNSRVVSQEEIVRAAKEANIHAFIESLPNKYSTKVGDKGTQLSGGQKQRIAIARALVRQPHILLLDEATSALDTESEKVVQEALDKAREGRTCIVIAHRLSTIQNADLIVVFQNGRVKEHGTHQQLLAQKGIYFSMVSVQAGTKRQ

C[C@H](NC(=O)c1c(N)nn2cccnc12)c1cc2cccc(C#Cc3cnn(C)c3)c2c(=O)n1-c1ccccc1 [Compound BB]
P-GP inhibition (P-GP (P-glycoprotein 1)): appears to be an inhibitor of P-GP
inhibition at 10 µM (P-GP (P-glycoprotein 1); 10 uM, read-out: PGP Inhibition @ 10 uM): 98%
IC50 (P-GP (P-glycoprotein 1); read-out: PGP Inhibition IC50): < 1 µM
ex vivo whole blood CXCL12 stimulation of phospho-AKT in T cells [1]: inhibits
ex vivo whole blood CXCL12 stimulation of phospho-AKT in monocytes [1]: inhibits
Cyp Induction @ 10 uM (Cyp): Neg (activity and mRNA)
tumor growth, orthotopic 4T1 breast cancer model (4T1; 7.5 mg/kg PO once daily, FIG. 33A): reduced tumor growth
total luciferase flux, orthotopic 4T1 breast cancer model (4T1; 7.5 mg/kg PO once daily, FIG. 33B): reduced total luciferase flux
tumor growth, 4T1 model, alone or with chemotherapy (4T1; Compound BB 15 mg/kg PO QD 2 weeks, 5-FU 50 mg/kg, docetaxel 33 mg/kg, paclitaxel 10 mg/kg IP): reduction in tumor growth
anti-tumor activity, subcutaneous 4T1 breast cancer model (4T1; single agent, FIG. 34): single agent activity
maintenance of anti-tumor effect after discontinuation of treatment (4T1; subcutaneous 4T1): at least 6 days
total luciferase flux (4T1 breast cancer): reduced total luciferase flux
tumor growth (4T1 breast cancer): reduced tumor growth
monocytic iMCs [2]: decreased
half-life [3]: 10 to 13 h
MDSC expansion after cyclophosphamide treatment (CT26 colon carcinoma): decreased
single agent activity (Lewis Lung Carcinoma): demonstrates single agent activity
IC50 (human hepatocytes): 10 to 25 µM
concentration at 1.5 h ([4]; oral, p.o. 0.5 mg/kg, 1.5h (time of LPS challenge)): 2.1 nM
concentration at […] ([4]; oral, p.o. 0.5 mg/kg, 5.5h (approximately 4 hours post LPS challenge)): 2.6 nM
concentration at 1.5 h ([4]; po, p.o. 1.5 mg/kg, 1.5h): 5.2 nM
concentration at […] ([4]; po, p.o. 1.5 mg/kg, 5.5h): 5.4 nM
concentration at 1.5 h ([4]; po, p.o. 5 mg/kg, 1.5h): 22.6 nM
concentration at […] ([4]; po, p.o. 5 mg/kg, 5.5h): 24.7 nM
concentration at 2 h ([5]; C57 Albino, mouse, 3 mg/kg, 2 h): 25.9 nM
concentration at 2 h ([5]; C57 Albino, mouse, 7.5 mg/kg, 2 h): 99 nM
concentration at 2 h ([5]; C57 Albino, mouse, 15 mg/kg, 2 h): 157 nM
concentration at 2 h ([5]; 3 mg/kg, Trough): 0.75 nM
concentration at 2 h ([5]; 7.5 mg/kg, Trough): 8.99 nM
concentration at 2 h ([5]; 15 mg/kg, Trough): 8.39 nM
M1 macrophage differentiation [6]: did not have an observable effect
combination effect (isobologram) (TMD8 cell line): synergistic effect
